According to US6500853B1, “Inhibitors of phospholipase enzymes” (Genetics Institute, LLC, priority 1998, dated 2002):

What was measured:
cPLA2 = biological target: T1, cPLA2 (Homo sapiens, UniProt P47712); assay: Coumarin Assay (cPLA2 inhibition); assay type: biochemical; details: for inhibition at 24 µM: CONCENTRATION 24 micromolar
T1 sequence (P47712 1-749): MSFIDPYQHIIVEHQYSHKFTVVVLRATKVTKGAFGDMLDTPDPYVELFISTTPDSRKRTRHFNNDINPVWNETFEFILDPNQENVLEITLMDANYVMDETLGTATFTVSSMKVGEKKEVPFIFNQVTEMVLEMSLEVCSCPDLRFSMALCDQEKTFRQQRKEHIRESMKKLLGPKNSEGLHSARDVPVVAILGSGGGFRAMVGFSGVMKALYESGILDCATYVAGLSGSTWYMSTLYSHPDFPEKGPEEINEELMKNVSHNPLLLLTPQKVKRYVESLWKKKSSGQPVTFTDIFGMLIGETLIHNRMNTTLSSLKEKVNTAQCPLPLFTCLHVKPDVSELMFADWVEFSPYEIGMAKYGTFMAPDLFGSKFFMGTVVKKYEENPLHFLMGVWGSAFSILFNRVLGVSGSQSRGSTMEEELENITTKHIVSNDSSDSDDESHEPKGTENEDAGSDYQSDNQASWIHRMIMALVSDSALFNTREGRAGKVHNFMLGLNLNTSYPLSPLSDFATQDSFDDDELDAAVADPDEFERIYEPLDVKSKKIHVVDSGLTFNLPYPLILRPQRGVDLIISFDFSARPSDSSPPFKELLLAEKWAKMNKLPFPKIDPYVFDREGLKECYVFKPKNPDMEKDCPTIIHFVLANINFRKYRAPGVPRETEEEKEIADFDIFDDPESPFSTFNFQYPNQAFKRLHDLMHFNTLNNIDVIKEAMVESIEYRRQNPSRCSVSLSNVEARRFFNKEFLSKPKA
In short: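 Percent inhibition at the stated concentration, from the rate of 460 nm emission rise (360 nm excitation) per minute. Reaction started by adding 4 μg enzyme to compound and 60 μM 7-hydroxycoumarinyl 6-heptenoate in Hepes buffer pH 7.5 with 1 mM EDTA.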

[1] = system: Rat Carrageenan-Induced Footpad Edema; assay: Rat Carrageenan-Induced Footpad Edema Test; assay type: in vivo, male Sprague Dawley rats; details: footpad volume 3 hours after carrageenan; for inhibition in vivo at 2 mg/kg / inhibition in vivo at 10 mg/kg: po; for inhibition in vivo at 2 mg/kg / inhibition in vivo at 10 mg/kg / PERCENT INHIBITION: PO
[2] = Rattus norvegicus, 3 h, 2 mg/Kg, read-out: PERCENT INHIBITION
[3] = Rattus norvegicus, 3 h, 10 mg/Kg, read-out: PERCENT INHIBITION
[4] = CONCENTRATION 100 micromolar, read-out: PERCENT INHIBITION @

Work on O=C(O)c1cccc(NC(=O)c2cn(C(c3ccccc3)c3ccccc3)c3ccc(NC(=O)C4CCCC4)cc23)c1 [Example 100, 3-[({1-benzhydryl-5-[(cyclopentylcarbonyl)amino]-1H-indol-3-yl}carbonyl)amino]benzoic acid] yielded an inhibition at 24 µM (cPLA2; read-out: PERCENT INHIBITION @) of 50%, an inhibition at 30 µM (cPLA2; CONCENTRATION 30 micromolar, read-out: PERCENT INHIBITION @) of 50% and an inhibition at 80 µM (cPLA2; CONCENTRATION 80 micromolar, read-out: PERCENT INHIBITION @) of 50%. It also gave an inhibition in vivo at 2 mg/kg [1, 2] of 6.14% and an inhibition in vivo at 10 mg/kg [1, 3] of 20.7%.

O=C(O)CCNC(=O)c1cn(C(c2ccccc2)c2ccccc2)c2ccc(NC(=O)C3CCCC3)cc12 [Example 101, 3-[({1-benzhydryl-5-[(cyclopentylcarbonyl)amino]-1H-indol-3-yl}carbonyl)amino]propanoic acid] showed an inhibition at 100 µM (cPLA2; [4]) of 6%, an inhibition at 400 µM (cPLA2; CONCENTRATION 400 micromolar, read-out: PERCENT INHIBITION @) of 49% and an inhibition in vivo at 2 mg/kg [1, 2] of 11.2%. The inhibition in vivo at 10 mg/kg [1, 3] was 12.4%.

In the case of Cc1ccccc1S(=O)(=O)NC(=O)c1cn(C(c2ccccc2)c2ccccc2)c2ccc(NC(=O)C3CCCC3)cc12 [Example 102, N-[1-benzhydryl-3-({[(2-methylphenyl)sulfonyl]amino}carbonyl)-1H-indol-5-yl]cyclopentanecarboxamide], the inhibition at 20 µM (cPLA2; CONCENTRATION 20 micromolar, read-out: PERCENT INHIBITION @) is reported as 31%, the inhibition at 48 µM (cPLA2; CONCENTRATION 48 micromolar, read-out: PERCENT INHIBITION @) is reported as 50% and the inhibition in vivo at 2 mg/kg [1, 2] is reported as 2.56%. For the same compound, the inhibition in vivo at 10 mg/kg [1, 3] was 8.48%.

O=C(O)CCNC(=O)C(=O)c1cn(C(c2ccccc2)c2ccccc2)c2ccc(NC(=O)C3CCCC3)cc12 [Example 103, 3-[(2-{1-benzhydryl-5-[(cyclopentylcarbonyl)amino]-1H-indol-3-yl}-2-oxoacetyl)amino]propanoic acid] gave an inhibition at 100 µM (cPLA2; [4]) of 50%, an inhibition at 104 µM (cPLA2; CONCENTRATION 104 micromolar, read-out: PERCENT INHIBITION @) of 50% and an inhibition in vivo at 2 mg/kg [1, 2] of 16.5%. It also gave an inhibition in vivo at 10 mg/kg [1, 3] of 17.3%.

Compound O=C(Nc1cccc(C(=O)O)c1)C(=O)c1cn(C(c2ccccc2)c2ccccc2)c2ccc(NC(=O)C3CCCC3)cc12 [Example 104, 3-[(2-{1-benzhydryl-5-[(cyclopentylcarbonyl)amino]-1H-indol-3-yl}-2-oxoacetyl)amino]benzoic acid] has an inhibition at 22 µM (cPLA2; CONCENTRATION 22 micromolar, read-out: PERCENT INHIBITION @) of 50%, an inhibition at 24 µM (cPLA2; read-out: PERCENT INHIBITION @) of 50% and an inhibition in vivo at 2 mg/kg [1, 2] of 14.5%. It also gave an inhibition in vivo at 10 mg/kg [1, 3] of 6.01%.

Work on O=C(Cc1cn(Cc2ccc(Cc3ccccc3)cc2)c2ccc(OCc3ccccc3)cc12)Nc1cccc(C(=O)O)c1 [Example 105, 3-({2-[1-(4-benzylbenzyl)-5-(benzyloxy)-1H-indol-3-yl]acetyl}amino)benzoic acid] yielded an inhibition at 2.4 µM (cPLA2; CONCENTRATION 2.4 micromolar, read-out: PERCENT INHIBITION @) of 50%, an inhibition at 7 µM (cPLA2; CONCENTRATION 7 micromolar, read-out: PERCENT INHIBITION @) of 50% and an inhibition at 10 µM (cPLA2; CONCENTRATION 10 micromolar, read-out: PERCENT INHIBITION @) of 74%. For the same compound, the inhibition in vivo at 5 mg/kg ([1]; Rattus norvegicus, iv, 3 h, IV, 5 mg/Kg, read-out: PERCENT INHIBITION) was 1.51%.

In the case of O=C(O)c1cn(C(c2ccccc2)c2ccccc2)c2ccc(NC(=O)C3CCCC3)cc12 [Example 114, 1-benzhydryl-5-[(cyclopentylcarbonyl)amino]-1H-indole-3-carboxylic acid], the inhibition at 100 µM (cPLA2; [4]) is reported as 45%, the inhibition at 152 µM (cPLA2; CONCENTRATION 152 micromolar, read-out: PERCENT INHIBITION @) is reported as 50% and the inhibition at 170 µM (cPLA2; CONCENTRATION 170 micromolar, read-out: PERCENT INHIBITION @) is reported as 50%. The inhibition in vivo at 2 mg/kg [1, 2] was 12.2% and the inhibition in vivo at 10 mg/kg [1, 3] was 22.2%.

O=C(O)C(=O)c1cn(C(c2ccccc2)c2ccccc2)c2ccc(NC(=O)C3CCCC3)cc12 [Example 115] was tested, and the “PERCENT INHIBITION @” value (cPLA2; CONCENTRATION 50 micromolar) was 89%, the “PERCENT INHIBITION @” value (cPLA2; CONCENTRATION 100 micromolar) was 20% and the “PERCENT INHIBITION @” value (cPLA2; CONCENTRATION 250 micromolar) was 50%. For the same compound, the “PERCENT INHIBITION” value ([1]; 2 mg/Kg) was 1.24% and the “PERCENT INHIBITION” value ([1]; 10 mg/Kg) was 18.46%.
